From patent publication US4146720A, “N-Aminoethyl-substituted-3-nitronaphthalimides” (priority 1977, dated 1979)

Columns and labels:
[1] = Comparative toxicity study (LD0, LD50) and therapeutic index; conditions: mouse, in vivo
Text: (§1) In the study of the cytostatic action, 6-mercaptopurine was taken as the comparative anti-neoplastic drug.

[2] = tested on: mouse; assay: as above; conditions: for LD0 (zero lethal dose or maximal permissible dose): LD0 expressed in mg/mouse; for LD50: LD50 expressed in mg/mouse
Text: as §1

[3] = tested on: He-La cells and KB cells; assay: Cytostatic action on He-La cells and on KB cells, 6-mercaptopurine as comparative drug (Table 1); assay type: cell-based, human; parameters: unit not given beside the values; conditions: calculated using 6-mercaptopurine as the comparative drug (6-mercaptopurine = 1)
Text: as §1

[4] = tested on: HeLa cells; assay: Cytotoxic activity on HeLa cells, comparison with corresponding 4-nitronaphthalimides; assay type: cell-based, human; conditions: relative; ID50 of 6-mercaptopurine is assigned the value "1"; 37° C., 72 hours; Lowry protein
Description: A series of tests has been carried out comparing the compounds of our invention with the corresponding 4-nitronaphthalimides, with respect to their cytotoxic activity on HeLa cells. The cytotoxic activity test was carried out in accordance with the procedure set forth in "R. I. Heral. Cancer Chemotherapy Report part III, Vol. III, No. 2".
HeLa cells are human cancer cells commonly used for investigating the cytotoxic activity of compounds. These HeLa cells are cultured by the single layer tissue culture technique on glass slides in the laboratories of the Spanish company, Laboratories Made, S.A., of Madrid, Spain, the assignee of this application.
In the tests, there was used an initial culture containing approximately 125000 HeLa cells per milliliter. The initial culture was dispersed with trypsin and was stirred to maintain the cells in suspension therein. Portions of equal volume of the suspension were placed in separate test tubes and to the test tubes were added the various compounds set forth below in various concentrations. There was employed as a standard for comparison, the compound 6-mercaptopurine, a known anti-neoplastic agent whose cytotoxic activity on HeLa cells is well known. As a control, there were also employed test tubes containing the suspension and to which no compound was added.
The contents of the test tubes were cultured at 37° C. for 72 hours. Then the contents of the various test tubes were examined by optical microscope to determine the approximate proportion of cells whose cellular growth was inhibited. Then, the protein content of each tube was determined by the Lowry method, as modified by Oyama and Eagle (Proc. Soc. Exptl. Biol. Med. 91, 305 (1956), and these values are compared with the corresponding values obtained in the control test tubes wherein no compound was added. Comparison of these measured protein values provides a further determination of the inhibition of cell growth caused by the test compounds. With the data obtained from the test tubes containing the same compound in various concentrations, a graph was prepared of concentration of compound versus inhibition of growth of HeLa cells. From this, there can be obtained the so-called ID50 value, that is, the dose of the compound that inhibits HeLa cellular growth by 50%. This is then compared with the results for the comparison compound 6-mercaptopurine. For purposes of comparison, the ID50 value of 6-mercaptopurine is assigned the value "1".

[5] = tested on: Swiss I.C.R. albino mice; assay: Raticide/muricide action, drugs mixed with mice food for 7 days, Warfarin as comparative substance; assay type: in vivo, mouse (Swiss I.C.R. albino); conditions: for Dose to be taken in seven days: mixed with usual mice food at 1%, 0.5% and 0.1%, 7 days, oral; for Raticide and muricide action compared with Warfarin / Toxicity compared with Warfarin: in words
Description: The four drugs were given to Swiss I.C.R. albino mice during 7 days. The administration was done by mixing the drugs with the usual mice food at concentrations of 1%, 0.5% and 0.1%. Two cribs were put in each cage: one with the usual mice food and the other containing food to which our drugs were added at the above mentioned concentrations. The food of both cribs was weighed daily in order to see if the animals could distinguish it. Warfarin (3-(α-acetonylbenzyl)-4-hydroxycoumarin) was used as the comparative substance.

| SMILES | selectivity ratio [1] | LD0 (zero lethal dose or maximal permissible dose) [2] | LD50 [2] | ID50 (50% inhibitory dose) [3] | ID50 (dose that inhibits HeLa cellular growth by 50%) [4] | Dose to be taken in seven days [5] | Raticide and muricide action compared with Warfarin [5] | Toxicity compared with Warfarin [5] |
| --- | --- | --- | --- | --- | --- | --- | --- | --- |
| Sc1ncnc2nc[nH]c12 [6-mercaptopurine, reference compound] | 5 | 1 mg/mouse | 5 mg/mouse | – | – | – | – | – |
| O=C1c2cccc3cc([N+](=O)[O-])cc(c23)C(=O)N1CCN1CCCCC1 [Compound 1, N-[2-(N-piperidino)ethyl]-3-nitronaphthalimide] | – | 0.5 mg/mouse | 2 mg/mouse | 2 | 2 | 80 mg/kg | – | – |
| CCN(CC)CCN1C(=O)c2cccc3cc([N+](=O)[O-])cc(c23)C1=O [Compound 2, N-(2-diethylaminoethyl)-3-nitronaphthalimide] | – | 0.15 mg/mouse | 2 mg/mouse | 3 | 3 | 13 mg/kg | great superiority over Warfarin as raticide and muricide agents | more toxic |
| CN(C)CCN1C(=O)c2cccc3cc([N+](=O)[O-])cc(c23)C1=O [Compound 3, N-(2-dimethylaminoethyl)-3-nitronaphthalimide] | 2 | 0.2 mg/mouse | 0.30 mg/mouse | 0.15 | 0.15 | 6.6 mg/kg | great superiority over Warfarin as raticide and muricide agents | more toxic |
| O=C1c2cccc3cc([N+](=O)[O-])cc(c23)C(=O)N1CCN1CCCC1 [Compound 4, N-[2-(N-pyrrolidino)ethyl]-3-nitronaphthalimide] | 1.26 | 0.2 mg/mouse | 0.38 mg/mouse | 0.3 | 0.30 | 6.6 mg/kg | great superiority over Warfarin as raticide and muricide agents | more toxic |
| O=C1c2cccc3c([N+](=O)[O-])ccc(c23)C(=O)N1CCN1CCCCC1 [N-[2-(N-piperidino)ethyl]-4-nitronaphthalimide, reference compound] | – | – | – | – | 5 | – | – | – |
| O=C1c2cccc3c([N+](=O)[O-])ccc(c23)C(=O)N1CCN1CCCC1 [N-[2-(N-pyrrolidino)ethyl]-4-nitronaphthalimide, reference compound] | – | – | – | – | 4 | – | – | – |
| CCN(CC)CCN1C(=O)c2cccc3c([N+](=O)[O-])ccc(c23)C1=O [N-[2-diethylaminoethyl]-4-nitronaphthalimide, reference compound] | – | – | – | – | 5.5 | – | – | – |
| CN(C)CCN1C(=O)c2cccc3c([N+](=O)[O-])ccc(c23)C1=O [N-[2-dimethylaminoethyl]-4-nitronaphthalimide, reference compound] | – | – | – | – | 3 | – | – | – |
| CC(=O)CC(c1ccccc1)c1c(O)c2ccccc2oc1=O (stereo not drawn) [Warfarin, 3-(α-acetonylbenzyl)-4-hydroxycoumarin, reference compound] | – | – | – | – | – | 35 mg/kg | – | – |
